Data taken from PMC7725003, “Systematically Studying the Optimal Amino Acid Distribution Patterns of the Amphiphilic Structure by Using the Ultrashort Amphiphiles” (Frontiers in Microbiology, 2020).
Where no end group is shown, it is not given here.

Tests used:
[1] = tested on: all of the tested bacterial strains; assay: Geometric mean of MICs, all tested bacterial strains; format: cell-based; settings: for GM, All: geometric mean of MICs across all tested strains; for TI, All: therapeutic index TI = MHC/GM MIC
In short: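 Mid-log bacteria at 0.5–1 × 10^6 CFU mL^–1 in MHB with peptides serially diluted in 0.2% BSA, 24 h at 37°C. MIC is the lowest concentration giving 95% growth inhibition by A492. MBC is the lowest giving >99.9% kill on agar subculture, and the GM is taken over all strains.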

S. pullorum 7913 = format: cell-based, Salmonella pullorum; settings: 7913, 24 h
In short: (§1)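 Inoculum: mid-log phase, MHB, 0.5–1 × 10^6 CFU mL^–1. Peptides: serial dilution in 0.2% BSA, equal volume. Incubation: 24 h, 37°C. Read-out: A492, MIC at 95% inhibition; MBC >99.9% kill after agar subculture.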

Gram-positive bacteria [2] = settings: geometric mean of MBCs, 7 Gram-positive strains (Table 2)
Gram-positive bacteria [3] = settings: for GM MIC: geometric mean of MICs, 7 Gram-positive strains (Table 2); for TI, Gram-positive bacteria: therapeutic index TI = MHC/GM MIC
In short: (§2)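 Broth microdilution adapted from NCCLS: mid-log bacteria diluted in MHB to 0.5–1 × 10^6 CFU mL^–1, mixed with peptides serially diluted in 0.2% BSA. After 24 h at 37°C, MIC taken as the lowest concentration inhibiting 95% of growth by absorbance at 492 nm. Assays repeated more than 3 times.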

Gram-negative bacteria [4] = settings: for GM MIC: geometric mean of MICs, 9 Gram-negative strains (Table 2); for TI, Gram-negative bacteria: therapeutic index TI = MHC/GM MIC
In short: as §2

S. epidermidis 12228 = format: cell-based, Staphylococcus epidermidis; settings: 12228, 24 h
In short: as §1

[5] = tested on: Listeria monocytogenes CGMCC 1.1075; format: cell-based; settings: CGMCC 1.1075, 24 h
In short: as §1

E. coli O78 = format: cell-based, Escherichia coli; settings: O78, 24 h
In short: as §1

E. coli UB1005 = format: cell-based, Escherichia coli; settings: UB1005, 24 h
In short: as §1

E. coli 25922 = format: cell-based, Escherichia coli; settings: 25922, 24 h
In short: as §1

S. typhimurium 7731 = format: cell-based, Salmonella typhimurium; settings: 7731, 24 h
In short: as §1

S. typhimurium 14028 = format: cell-based, Salmonella typhimurium; settings: 14028, 24 h
In short: as §1

S. aureus 29213 [6] = format: cell-based, Staphylococcus aureus; settings: 29213, 24 h
In short: as §1

S. aureus 25923 = format: cell-based, Staphylococcus aureus; settings: 25923, 24 h
In short: as §1

MRSA 43300 = format: cell-based, methicillin-resistant S. aureus; settings: 43300, 24 h
In short: as §1

S. aureus 29213 [7] = assay: Salt sensitivity assay (MIC); format: cell-based, Staphylococcus aureus; settings: for MIC, FeCl3: 4 μM FeCl3; for MIC, NH4Cl: 6 μM NH4Cl; for MIC, ZnCl2: 8 μM ZnCl2; for MIC, MgCl2: 1 mM MgCl2; for MIC, CaCl2: 2 mM CaCl2; for MIC, KCl: 4.5 mM KCl; for MIC, NaCl: 150 mM NaCl; for MIC, Control: no added salt, three independent assays
In short: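 MICs determined by broth microdilution in MHB with 0.5–1 × 10^6 CFU/mL, peptides serially diluted in 0.2% BSA, 24 h at 37°C. Medium supplemented with physiological salts (150 mM NaCl, 4.5 mM KCl, 6 μM NH4Cl, 8 μM ZnCl2, 1 mM MgCl2, 2mM CaCl2, 4 μM FeCl3). MIC = lowest concentration inhibiting 95% growth (A492).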

E. faecalis 29212 = format: cell-based, Enterococcus faecalis; settings: 29212, 24 h
In short: as §1

Gram-negative bacteria [8] = settings: geometric mean of MBCs, 9 Gram-negative strains (Table 2)
B. subtilis 63501 = format: cell-based, Bacillus subtilis; settings: 63501, 24 h
In short: as §1

P. aeruginosa 27853 = format: cell-based, Pseudomonas aeruginosa; settings: 27853, 24 h
In short: as §1

E. coli ATCC 25922 = assay: Salt sensitivity assay (MIC); format: cell-based, Escherichia coli; settings: for MIC, FeCl3: 4 μM FeCl3; for MIC, NH4Cl: 6 μM NH4Cl; for MIC, ZnCl2: 8 μM ZnCl2; for MIC, MgCl2: 1 mM MgCl2; for MIC, CaCl2: 2 mM CaCl2; for MIC, KCl: 4.5 mM KCl; for MIC, NaCl: 150 mM NaCl; for MIC, Control: no added salt, three independent assays
In short: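 The salt sensitivity of peptides was tested against E. coli ATCC 25922 using a modified NCCLS broth microdilution MIC method. Mid-log bacteria were diluted in MHB to 0.5–1 × 10^6 CFU mL^–1 and mixed in equal volumes with peptides serially diluted in 0.2% BSA in 96-well plates. Physiological salt was added where specified, and the assay was done three independent times.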

E. coli K88 = settings: for MIC: MHB, 24 h 37°C, 95% growth inhibition; for MBC: value in brackets, >99.9% of cells killed
Method: (§3) The antimicrobial activities of the peptides were measured using a method adapted from the National Committee for Clinical Laboratory Standards (NCCLS) with some modifications ([Chou et al., 2016]). The specific procedure for these assays has been previously described. In brief, the bacterial cells were grown to a mid-logarithmic phase and diluted in MHB to an ultimate concentration of 0.5–1 × 10^6 CFU mL^–1. Subsequently, the peptides were consecutively diluted in a 0.2% BSA solution and then added to a bacterial solution in a 96-well plate at identical volumes. After incubation for 24 h at 37°C, the MICs were determined to be the lowest peptide concentration that inhibited 95% of the bacterial growth by monitoring the absorbance at 492 nm using a microplate reader. Subsequently, 50 μL of each incubation mixture was further transferred to agar plates and incubated overnight. […] Every assay was reproduced more than 3 times.

E. coli K99 = settings: for MIC: MHB, 24 h 37°C, 95% growth inhibition
Method: as §3

Substance: LLRLRRRLL-NH2 [L2]
- GM, All [1]: 33.42 µM
- TI, All [1]: 7.66
- MBC (S. pullorum 7913): 32 µM
- MIC (S. pullorum 7913): 16 µM
- GM MBC (Gram-positive bacteria [2]): 70.66 µM
- GM MIC (Gram-positive bacteria [3]): 52.50 µM
- TI, Gram-positive bacteria (Gram-positive bacteria [3]): 4.88
- GM MIC (Gram-negative bacteria [4]): 21.77 µM
- TI, Gram-negative bacteria (Gram-negative bacteria [4]): 11.76
- MIC (S. epidermidis 12228): > 64 µM
- MIC [5]: >64 µM
- MBC (E. coli O78): 16 µM
- MIC (E. coli O78): 8 µM
- MBC (E. coli UB1005): 32 µM
- MIC (E. coli UB1005): 16 µM
- MBC (E. coli 25922): 16 µM
- MIC (E. coli 25922): 8 µM
- MBC (S. typhimurium 7731): 128 µM
- MIC (S. typhimurium 7731): 64 µM
- MBC (S. typhimurium 14028): 128 µM
- MIC (S. typhimurium 14028): 64 µM
- MBC (S. aureus 29213 [6]): 128 µM
- MIC (S. aureus 29213 [6]): 64 µM
- MIC (S. aureus 25923): > 64 µM
- MBC (MRSA 43300): 64 µM
- MIC (MRSA 43300): 32 µM
- MIC, FeCl3 (S. aureus 29213 [7]): > 64 µM
- MIC, NH4Cl (S. aureus 29213 [7]): > 64 µM
- MIC, ZnCl2 (S. aureus 29213 [7]): > 64 µM
- MIC, MgCl2 (S. aureus 29213 [7]): > 64 µM
- MIC, CaCl2 (S. aureus 29213 [7]): > 64 µM
- MIC, KCl (S. aureus 29213 [7]): > 64 µM
- MIC, NaCl (S. aureus 29213 [7]): > 64 µM
- MIC, Control (S. aureus 29213 [7]): > 64 µM
- MIC (E. faecalis 29212): > 64 µM
- GM MBC (Gram-negative bacteria [8]): 40.32 µM
- MBC (B. subtilis 63501): 4 µM
- MIC (B. subtilis 63501): 2 µM
- MIC (P. aeruginosa 27853): > 64 µM
- MIC, FeCl3 (E. coli ATCC 25922): 8 µM
- MIC, NH4Cl (E. coli ATCC 25922): 8 µM
- MIC, ZnCl2 (E. coli ATCC 25922): 8 µM
- MIC, MgCl2 (E. coli ATCC 25922): 16 µM
- MIC, CaCl2 (E. coli ATCC 25922): 32 µM
- MIC, KCl (E. coli ATCC 25922): 16 µM
- MIC, NaCl (E. coli ATCC 25922): 32 µM
- MIC, Control (E. coli ATCC 25922): 8 µM
- MIC (E. coli K88): 16 µM
- MBC (E. coli K88): 32 µM
- MIC (E. coli K99): 8 µM
- MBC (E. coli K99; value in brackets, >99.9% of cells killed): 16 µM

Substance: LRRLRLLRL-NH2 [L12]
- GM, All [1]: 64.00 µM
- TI, All [1]: 4.00
- MBC (S. pullorum 7913): 64 µM
- MIC (S. pullorum 7913): 32 µM
- GM MBC (Gram-positive bacteria [2]): 86.14 µM
- GM MIC (Gram-positive bacteria [3]): 70.66 µM
- TI, Gram-positive bacteria (Gram-positive bacteria [3]): 3.62
- GM MIC (Gram-negative bacteria [4]): 59.26 µM
- TI, Gram-negative bacteria (Gram-negative bacteria [4]): 4.32
- MIC (S. epidermidis 12228): > 64 µM
- MBC [5]: 32 µM
- MIC [5]: 16 µM
- MBC (E. coli O78): 128 µM
- MIC (E. coli O78): 64 µM
- MBC (E. coli UB1005): 64 µM
- MIC (E. coli UB1005): 32 µM
- MBC (E. coli 25922): 64 µM
- MIC (E. coli 25922): 32 µM
- MIC (S. typhimurium 7731): > 64 µM
- MIC (S. typhimurium 14028): > 64 µM
- MIC (S. aureus 29213 [6]): >64 µM
- MIC (S. aureus 25923): > 64 µM
- MIC (MRSA 43300): >64 µM
- MIC, FeCl3 (S. aureus 29213 [7]): > 64 µM
- MIC, NH4Cl (S. aureus 29213 [7]): > 64 µM
- MIC, ZnCl2 (S. aureus 29213 [7]): > 64 µM
- MIC, MgCl2 (S. aureus 29213 [7]): > 64 µM
- MIC, CaCl2 (S. aureus 29213 [7]): > 64 µM
- MIC, KCl (S. aureus 29213 [7]): > 64 µM
- MIC, NaCl (S. aureus 29213 [7]): > 64 µM
- MIC, Control (S. aureus 29213 [7]): > 64 µM
- MIC (E. faecalis 29212): > 64 µM
- GM MBC (Gram-negative bacteria [8]): 87.09 µM
- MBC (B. subtilis 63501): 32 µM
- MIC (B. subtilis 63501): 16 µM
- MIC (P. aeruginosa 27853): > 64 µM
- MIC, FeCl3 (E. coli ATCC 25922): 32 µM
- MIC, NH4Cl (E. coli ATCC 25922): 32 µM
- MIC, ZnCl2 (E. coli ATCC 25922): 32 µM
- MIC, MgCl2 (E. coli ATCC 25922): > 64 µM
- MIC, CaCl2 (E. coli ATCC 25922): > 64 µM
- MIC, KCl (E. coli ATCC 25922): 32 µM
- MIC, NaCl (E. coli ATCC 25922): > 64 µM
- MIC, Control (E. coli ATCC 25922): 32 µM
- MIC (E. coli K88): 16 µM
- MBC (E. coli K88): 32 µM
- MIC (E. coli K99): > 64 µM
